# Laboratory results taken from patent US10597388B2, “Pyridazinone herbicides” (FMC CORPORATION, priority 2014, dated 2020).
# What was measured:
# Assay type in all cases: in vivo
# corn (Zea mays) [1] = test: Test A greenhouse herbicide test, pre- and postemergence; details: Postemergence
# How it was run: (§1)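 Seeds sown in loam–sand blend got a preemergence directed soil spray of compound in non-phytotoxic solvent with surfactant. Postemergence treatment was given at 2–10 cm, one- to two-leaf stage. After ~10 d in greenhouse, injury was rated visually vs untreated controls, 0 (no effect) to 100 (complete control).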
# [2] = tested on: foxtail, giant (giant foxtail, Setaria faberii); test: as above
# How it was run: as §1
# [3] = tested on: ryegrass, Italian (Italian ryegrass, Lolium multiflorum); test: as above
# How it was run: as §1
# [4] = tested on: wheat (Triticum aestivum); test: as above; details: Postemergence
# How it was run: as §1
# [5] = tested on: blackgrass (Alopecurus myosuroides); test: Test C greenhouse herbicide test, pre- and postemergence
# How it was run: (§2)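 Each species was treated both before emergence, in a loam–sand soil mix, and after emergence, as 1- to 4-leaf seedlings in peat-based potting medium. Plants stayed in the greenhouse 13 to 15 d, then were scored from 0 (no effect) to 100 (complete control) relative to controls.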
# corn (Zea mays) [6] = test: as above
# How it was run: as §2
# [7] = tested on: nutsedge, yellow (yellow nutsedge, Cyperus esculentus); test: as above
# How it was run: as §2
# [8] = tested on: pigweed (Amaranthus retroflexus); test: as above
# How it was run: as §2
# soybean (Glycine max) = test: as above
# How it was run: as §2
# [9] = tested on: velvetleaf (Abutilon theophrasti); test: as above
# How it was run: as §2
# [10] = tested on: waterhemp (common waterhemp, Amaranthus rudis); test: as above
# How it was run: as §2
# [11] = 125 g ai/ha, 0 to 100 scale where 0 is no effect and 100 is complete control
# [12] = 500 g ai/ha, 0 to 100 scale, 0 is no effect, 100 is complete control
# [13] = Postemergence, 125 g ai/ha, 0 to 100 scale where 0 is no effect and 100 is complete control
# [14] = Postemergence, 500 g ai/ha, 0 to 100 scale, 0 is no effect, 100 is complete control
# [15] = Preemergence, 125 g ai/ha, 0 to 100 scale where 0 is no effect and 100 is complete control
# [16] = Preemergence, 500 g ai/ha, 0 to 100 scale where 0 is no effect and 100 is complete control
# [17] = Postemergence, 31 g ai/ha, 0 to 100 scale (0 no effect, 100 complete control)
# [18] = Postemergence, 125 g ai/ha, scale 0 to 100, 0 is no effect, 100 is complete control
# [19] = Postemergence, 250 g ai/ha, scale 0 to 100, 0 no effect, 100 complete control, 13 to 15 d
# [20] = postemergence, 62 g ai/ha, scale 0 to 100, 0 no effect, 100 complete control
compound,measurement,setting,value
CCC(=O)Oc1c(C)nn(C)c(=O)c1-c1c(C)ccc2ccccc12 [Compound 78],"Plant response rating, Corn",corn (Zea mays) [1]; [11],0
same,Corn plant response rating,corn (Zea mays) [1]; [12],0
same,"Plant response rating, Foxtail, Giant",[2]; [13],20
same,"Foxtail, Giant plant response rating",[2]; [14],70
same,"Foxtail, Giant plant response rating",[2]; [15],20
same,"Plant response rating, Foxtail, Giant",[2]; [16],60
same,"Plant response rating, Ryegrass, Italian",[3]; [13],80
same,"Ryegrass, Italian plant response rating",[3]; [14],100
same,"Ryegrass, Italian plant response rating",[3]; [15],100
same,"Plant response rating, Ryegrass, Italian",[3]; [16],100
same,"Plant response rating, Wheat",[4]; [11],0
same,Wheat plant response rating,[4]; [12],60
same,Blackgrass plant response rating,[5]; [17],0
same,"Plant response rating, Blackgrass",[5]; [18],5
same,"Plant response rating, Blackgrass",[5]; [19],30
same,Blackgrass plant response rating,[5]; [20],5
same,Corn plant response rating,corn (Zea mays) [6]; [17],0
same,"Plant response rating, Corn",corn (Zea mays) [6]; [18],10
same,"Plant response rating, Corn",corn (Zea mays) [6]; [19],0
same,Corn plant response rating,corn (Zea mays) [6]; [20],0
same,"Nutsedge, Yellow plant response rating",[7]; [17],0
same,"Plant response rating, Nutsedge, Yellow",[7]; [18],35
same,"Plant response rating, Nutsedge, Yellow",[7]; [19],60
same,"Nutsedge, Yellow plant response rating",[7]; [20],25
same,Pigweed plant response rating,[8]; [17],50
same,"Plant response rating, Pigweed",[8]; [18],75
same,"Plant response rating, Pigweed",[8]; [19],80
same,Pigweed plant response rating,[8]; [20],60
same,Soybean plant response rating,soybean (Glycine max); [17],0
same,"Plant response rating, Soybean",soybean (Glycine max); [18],5
same,"Plant response rating, Soybean",soybean (Glycine max); [19],20
same,Soybean plant response rating,soybean (Glycine max); [20],0
same,Velvetleaf plant response rating,[9]; [17],0
same,"Plant response rating, Velvetleaf",[9]; [18],35
same,"Plant response rating, Velvetleaf",[9]; [19],60
same,Velvetleaf plant response rating,[9]; [20],10
same,Waterhemp plant response rating,[10]; [17],75
same,"Plant response rating, Waterhemp",[10]; [18],80
same,"Plant response rating, Waterhemp",[10]; [19],90
same,Waterhemp plant response rating,[10]; [20],90
